The source of these data is patent US8901314B2, “Substituted pyrazoles as N-type calcium channel blockers” (Janssen Pharmaceutica NV, priority 2012, dated 2014).

Molecules are shown by their SMILES. pIC50: −log10 of the molar value.

The subject of assay [1] is Cav2.2 (N-type calcium channel; α1B, α2δ and β3 subunits stably expressed in HEK293 cells). The assay is described as follows: Automated electrophysiology assay (QPatch-HT patch clamp). Type of assay: cell-based. To be noted: 0.1 μM; for QPatch % Inhibition, High Freq: high frequency stimulation (15th pulse of 5 Hz train); for QPatch % Inhibition, Low Freq: low frequency stimulation (1st pulse of train). How it is done:
The Cav2.2 (α1B) subunit (GenBank accession no. AAO53230; supplied by Lipscombe's laboratory at Brown University) was subcloned into pcDNA3.1, whereas the α2δ (M86621) and β3 (M88751) subunits were subcloned into pBudCE4.1 vectors. Stable cell lines expressing all three subunits were generated according to the following procedure: 1) HEK293 cells were transfected with α2δ−1/β3 expression constructs resulting in a stable cell line expressing α2δ−1 and β3 subunits that were selected under 200 μg/mL of Zeocin; 2) a stable cell line expressing α2δ−1/β3 subunits in high quantity as evidenced in its Western blots was isolated from the colony and purified; 3) this cell line was further transfected with Cav2.2 expression constructs, from which cells were subsequently selected under 400 μg/mL G418 and 200 μg/mL Zeocin; 4) these cells were clonally isolated, expanded and screened by Western blot analysis for expressing all three subunits
Cultures of cells stably expressing Cav2.2 were maintained at 37° C. in low glucose-containing Dulbecco's Modified Eagle medium (low glucose) under a 5% CO2 atmosphere. The medium was supplemented with 10% fetal bovine serum, 2 mM L-glutamine, 100 IU/mL penicillin, […] streptomycin, 400 μg/mL G418 and 200 μg/mL Zeocin.
High-throughput automated patch clamp system experiments were carried out using instruments (QPatch-HT) available from Sophion Biosciences, Inc. North Brunswick, N.J. Cells were grown in T175 flasks to 50%-90% confluence were enzymatically treated with Deatchin (Genlantis, San Diego, Calif., U.S.A.), centrifuged, rinsed and resuspended in 293 SFM II media (Life Technologies, Grand Island, N.Y., U.S.A.) supplemented with 25 mM HEPES (Sigma-Aldrich, St. Louis, Mo., U.S.A.) to a concentration of 2−3×10^6 cells/mL. Cells were added to automated cell preparation station on the QPatch-HT (Sophion Biosciences, North Brunswick, N.J., U.S.A.) and following a 10- to 30-min recovery period with gentle stirring, the assay protocol was initiated. During the automated cell preparation, cells were collected, centrifuged and resuspended in an extracellular (EC) solution containing 132 mM NaCl, 1.8 mM CaCl2, 5.4 mM KCl, 0.8 mM MgCl2, 10 mM glucose, and 10 mM HEPES (pH=7.4), adjusted with sucrose to 315 m0sm. The QPlate was primed with an intracellular solution containing 135 CsCl, 10 mM EGTA, 4 MgATP, 0.3 NaGTP, and 20 mM HEPES (pH=7.2), adjusted to approximately 290 m0sm with deionized water and the EC solution. Cells were added to the prepared QPlate wells by robotic pipettes of the QPatch-HT.
For cells determined to be in stable whole-cell patch clamp, the EC solution was replaced with a barium (Ba)/triethylammonium (TEA) solution containing 140 mM TEA-Cl, 10 mM BaCl2, 0.8 mM MgCl2, 10 mM glucose, and 10 mM HEPES (pH=7.4). High (40 mM) BaCl2 concentrations were made with adjustments of TEA-Cl (90 mM) to maintain the osmolarity. From a resting potential of −80 mV, a train of depolarizing pulses (15 pulses at 5 Hz, +20 mV) was delivered to the cell once every 30 sec for eight trains (4 min total), and the resulting currents were measured during a control period (no compound). This protocol was repeated for each subsequent addition of control buffer with or without compound (three periods total, each with four trains). The current generated in the 1st and 15th pulses of the last train of each period in the presence of each drug concentration was normalized to the current generated during the control period at the respective pulses (representing low- and high frequency stimulation, respectively). Data from both the second and third drug application period were analyzed for each cell. A final addition of Ba/TEA solution containing 60-100 uM CdCl2 was made to block all N-type current and “zero” the currents for each cell. A buffer/compound additions were made using a “spitting” feature of the QPatch-HT, which added three repretitions of 5 μL solution at the beginning of each recording period.
For orientation: In patch-clamp work, channel activity is measured electrically.

For assay [2], the target named is α1B (Cav2.2), β3 and α2δ subunits of the N-type calcium channel (stable HEK cell line) (Rattus norvegicus, UniProt Q02294). The assay is described as follows: Calcium-dye indicator assay (FDSS, KCl depolarization). Type of assay: cell-based. To be noted: calcium mobilization response to 50 mM KCl; six-point concentration-response. How it is done:
A stable cell line (HEK parent) co-expressing the α1B (Cav2.2), β3 and α2δ subunits of the N-type calcium channel subunits was used. These cells were routinely grown as monolayers in low glucose-containing Dulbecco's Modified Eagle Medium supplemented with 10% FBS, 2 mM L-glutamine, 100 I.U./mL penicillin, 100 μg/mL streptomycin, 400 μg/mL G418 and 200 μg/mL Zeocin (split ratio=1:5). Cells were maintained in 5% CO2 at 37° C. Compounds of Formula (I) were prepared as 10 mM stocks in DMSO from neat compound, if available. Otherwise, the 5 or 10 mM DMSO stock solutions provided in-house were used.
Calcium mobilization responses to KCl depolarization were evaluated by measuring the intensity of calcium-mediated fluorescent signal in the presence of BD Calcium Assay Dye (BD Biosciences, Franklin Lakes, N.J., U.S.A.), utilizing a Functional Drug Screening System (FDSS) by Hamamatsu Corporation (Bridgewater, N.J., U.S.A.).
Twenty-four hours prior to assay, cells were seeded in clear-base poly-D-lysine coated 384-well plates (BD Biosciences) at a density of 5,000 cells per well in culture medium and grown overnight in 5% CO2 at 37° C. On the day of assay growth media were removed and cells were loaded with BD calcium assay dye (BD Biosciences) for 35 min at 37° C. under 5% CO2 and then for 25 min at room temperature. Utilizing the FDSS, cells were exposed to representative compounds of Formula (I) at varying concentrations and intracellular calcium was measured for 5 min prior to the addition of 50 mM KCl for an additional 3 min of measurement.
Maximal fluorescence intensity (FI) achieved upon addition of 50 mM KCl was exported from the FDSS software and further analyzed using GraphPad Prism 4 (Graph Pad Software Inc., CA, U.S.A.). Data were normalized to the maximum average counts from quadruplicate wells for each condition in the presence of 50 mM KCl and to the minimum average counts in the presence of buffer. Theoretical curves were generated using nonlinear regression curve-fitting analysis of either sigmoidal concentration-response or sigmoidal concentration-response (variable slope), and the IC50 values with the best-fit dose curve determined by GraphPad Prism were reported.

Consider `COc1ccccc1-n1nc(C2CC(C)(C)OC(C)(C)C2)cc1-c1ccc(Cl)cc1` [Compound 1, 5-(4-Chloro-phenyl)-1-(2-methoxy-phenyl)-3-(2,2,6,6-tetramethyl-tetrahydro-pyran-4-yl)-1H-pyrazole], for which, in assay [1], the “QPatch % Inhibition, High Freq” value stood at 63% and the “QPatch % Inhibition, Low Freq” value is given as 58%. For the same compound, in assay [2], the pIC50 (commonly −log10 of the IC50, conventionally taken in molar units) was 8.77.

On to `COc1ccccc1-n1nc(C2CC(C)(C)OC(C)(C)C2)cc1-c1ccc(C)nc1` [Compound 23, 5-[1-(2-Methoxyphenyl)-3-(2,2,6,6-tetramethyltetrahydro-2H-pyran-4-yl)-1H-pyrazol-5-yl]-2-methylpyridine], for which, in assay [1], the “QPatch % Inhibition, High Freq” value is −8% and the “QPatch % Inhibition, Low Freq” value was −19%. Besides, the negative-log IC50 (pIC50) in assay [2] is 8.21.

Turning to `COc1ccccc1-n1nc(C2CC(C)(C)OC(C)(C)C2)cc1-c1ccc(Cl)s1` [Compound 14, 5-(5-Chlorothiophen-2-yl)-1-(2-methoxyphenyl)-3-(2,2,6,6-tetramethyltetrahydro-2H-pyran-4-yl)-1H-pyrazole], in assay [1], the “QPatch % Inhibition, High Freq” value is 74.5% and the “QPatch % Inhibition, Low Freq” value was determined as 63%. Further, the pIC50 in assay [2] is 8.21.

For `CC1(C)CC(c2cc(-c3ccc(Cl)cc3)n(-c3ccccc3N)n2)CC(C)(C)O1` [Compound 68, 2-[5-(4-Chlorophenyl)-3-(2,2,6,6-tetramethyltetrahydro-2H-pyran-4-yl)-1H-pyrazol-1-yl]aniline], in assay [1], the “QPatch % Inhibition, High Freq” value worked out at 14% and the “QPatch % Inhibition, Low Freq” value was −9%. In addition, the negative-log IC50 (pIC50) in assay [2] is 7.70.

Consider `CCOc1ccc(-c2cc(C3CC(C)(C)OC(C)(C)C3)nn2-c2ccccc2OC)cn1` [Compound 19, 2-Ethoxy-5-[1-(2-methoxyphenyl)-3-(2,2,6,6-tetramethyltetrahydro-2H-pyran-4-yl)-1H-pyrazol-5-yl]-pyridine], for which, in assay [1], the “QPatch % Inhibition, High Freq” value was 21% and the “QPatch % Inhibition, Low Freq” value is recorded as 10%. In addition, the pIC50 in assay [2] is 8.27.

Regarding `CCOC(=O)c1ccc(-c2cc(C3CC(C)(C)OC(C)(C)C3)nn2-c2ccccc2OC)cc1` [Compound 17, Ethyl 4-[1-(2-methoxyphenyl)-3-(2,2,6,6-tetramethyltetrahydro-2H-pyran-4-yl)-1H-pyrazol-5-yl]benzoate], in assay [1], the “QPatch % Inhibition, High Freq” value is reported as 82% and the “QPatch % Inhibition, Low Freq” value amounted to 84%. Besides, the negative logarithm of the IC50 (pIC50) in assay [2] is 8.29.

`COc1ccccc1-n1nc(C2=C[C@H](C)O[C@@H](C)C2)cc1-c1ccc(Cl)cc1` (relative stereo) [Compound 96, 5-(4-Chlorophenyl)-3-[(trans)-2,6-dimethyl-3,6-dihydro-2H-pyran-4-yl]-1-(2-methoxyphenyl)-1H-pyrazole]: in assay [1], the “QPatch % Inhibition, High Freq” value turned out to be 29% and the “QPatch % Inhibition, Low Freq” value was −20%. In addition, in assay [2], the pIC50 is 8.09.

In the case of `CN(C)c1ccccc1-n1nc(C2CC(C)(C)OC(C)(C)C2)cc1-c1ccc(Cl)cc1` [Compound 49, 2-[5-(4-Chlorophenyl)-3-(2,2,6,6-tetramethyltetrahydro-2H-pyran-4-yl)-1H-pyrazol-1-yl]-N,N-dimethylaniline], in assay [1], the “QPatch % Inhibition, High Freq” value was determined as 47% and the “QPatch % Inhibition, Low Freq” value was determined as 33%. For the same compound, the negative logarithm of the IC50 (pIC50) in assay [2] was 8.26.

`COc1ccccc1-n1nc(C2CC(C)(C)OC(C)(C)C2)cc1-c1ccc(Cl)cc1F` [Compound 3, 5-(4-Chloro-2-fluorophenyl)-1-(2-methoxyphenyl)-3-(2,2,6,6-tetramethyltetrahydro-2H-pyran-4-yl)-1H-pyrazole]: in assay [1], the “QPatch % Inhibition, High Freq” value came to 42% and the “QPatch % Inhibition, Low Freq” value worked out at 34%. Moreover, in assay [2], the negative-log IC50 (pIC50) is 9.00.

For the compound `COc1ccccc1-n1nc(C2CC(C)(C)OC(C)(C)C2)cc1-c1ccc(C#N)cc1` [Compound 2, 4-[1-(2-Methoxyphenyl)-3-(2,2,6,6-tetramethyltetrahydro-2H-pyran-4-yl)-1H-pyrazol-5-yl]-benzonitrile], in assay [1], the “QPatch % Inhibition, High Freq” value came out at 53.5% and the “QPatch % Inhibition, Low Freq” value was 56.5%. The negative logarithm of the IC50 (pIC50) in assay [2] is 8.96.

On to `COc1ccccc1-n1nc(C2C[C@@H](C)O[C@H](C)C2)cc1-c1ccccc1` (relative stereo) [Compound 67, 3-[(trans)-2,6-Dimethyltetrahydro-2H-pyran-4-yl]-1-(2-methoxyphenyl)-5-phenyl-1H-pyrazole], for which, in assay [1], the “QPatch % Inhibition, High Freq” value was found to be 65% and the “QPatch % Inhibition, Low Freq” value is listed as 55%. Further, in assay [2], the negative logarithm of the IC50 (pIC50) is 7.92.

Turning to `COc1ccccc1-n1nc(C2CC(C)(C)OC(C)(C)C2)cc1-c1ccc(OCCN2CCOCC2)cc1` [Compound 72, 4-(2-{4-[1-(2-Methoxyphenyl)-3-(2,2,6,6-tetramethyltetrahydro-2H-pyran-4-yl)-1H-pyrazol-5-yl]phenoxy}ethyl)morpholine], in assay [1], the “QPatch % Inhibition, High Freq” value is 11% and the “QPatch % Inhibition, Low Freq” value was 4%. Further, the pIC50 in assay [2] was 7.42.

Take `COc1ccccc1-n1nc(C2=CC(C)(C)OC(C)(C)C2)cc1-c1ccc(Cl)cc1` [Compound 95, 5-(4-Chlorophenyl)-1-(2-methoxyphenyl)-3-(2,2,6,6-tetramethyl-3,6-dihydro-2H-pyran-4-yl)-1H-pyrazole]: in assay [1], the “QPatch % Inhibition, High Freq” value stood at 26% and the “QPatch % Inhibition, Low Freq” value was 14%. The negative-log IC50 (pIC50) in assay [2] was 8.47.

`COc1ccccc1-n1nc(C2CC(C)(C)OC(C)(C)C2)cc1-c1ccc(C(C)=O)cc1` [Compound 12, 1-{4-[1-(2-Methoxyphenyl)-3-(2,2,6,6-tetramethyltetrahydro-2H-pyran-4-yl)-1H-pyrazol-5-yl]phenyl}ethanone]: in assay [1], the “QPatch % Inhibition, High Freq” value is on record as 41% and the “QPatch % Inhibition, Low Freq” value was determined as 30%. The pIC50 in assay [2] is 8.59.
